According to patent US20240043860A1, “NOVEL HYDROXYPHENYLPYRUVATE DIOXYGENASE POLYPEPTIDES AND METHODS OF USE THEREOF” (Syngenta Crop Protection AG, priority 2020, published 2024):
Several values for one entry are separate records, joined by “and”; a condition that tells them apart may be missing. Identical values can stand only once.

Columns and labels:
[1] = system: HPPD variant APESV V200 (SEQ ID NO: 6); assay: coupled HGO assay; type: biochemical, Apera spica-venti
Procedure: (§1) DNA sequences (SEQ ID NOs: 65-118, 128, 130, 131, and 133), synthesized for expression in E. coli, by GeneWiz (USA) to encode HPPD variants (SEQ ID NOs: 5-58, 122, 124, 125 and 127) derived from either Avena sativa (SEQ ID NOs: 122, 124), Alopecurus myosuroides (SEQ ID NO: 126) or Apera spica-venti (SEQ ID NOs: 123, 125) were transformed into E coli BL21 (DE3) (New England Biolabs) and grown in 0.5 ml Terrific broth +50 ug/ml Kanamycin media in a 96-deepwell block overnight (37° C., 900rpm). 25 ul of the overnight cultures were inoculated into fresh 96-deepwell block containing 1 ml Formedium Autoinduction Media (AIM). The AIM cultures were grown for 3h at 37° C. (900rpm) and then transferred to 20° C. overnight (900rpm) to allow protein expression. The overnight cultures were centrifuged and 500 ul of Cellytic B (Sigma Aldrich) was added to resuspend the cell pellets. The coupled HGO assay (Siehl et al, 2014) is used to generate IC50 values for the HPPD variants of interest.
(§2) E. coli BL21 (DE3) cells were transformed with a pET24a vector containing a C-terminally his-tagged Arabidopsis HGO gene, grown and induced overnight as described for the HPPD variants above. The cell pellet was resuspended in phosphate buffered saline at pH 7.4 containing 10% Glycerol, 1mm Tris[2-carboxyethyl] phosphine-HCl (TCEP) plus 30 mM Imidazole and lysed using lysozyme/benzonase. The extract was clarified by low speed centrifugation and purified in the same buffer down a 1 ml His Gravitrap column. The bound HGO was eluted in 0.25M imidazole and the fractions pooled and beaded into liquid nitrogen. All procedures apart from the centrifugation and beading steps were carried out under a nitrogen atmosphere.
(§3) The coupled HGO assay is carried out by adding 10 ul of HPPD extract to a 96-well plate and then adding 40 ul of reaction buffer (50 mM Bis Tris Propane, pH7.0, 25 mM sodium-L-ascorbate, 400μM mercaptoethanol, 50 μM Fe(II)SO4). The plates are left to incubate for 5 minutes on ice. […] 200 ul of HPP/HGO (197 μM hydroxyphenylpyruvic acid, 16 μl/ml Homogentisic Acid Oxidase in reaction buffer as described above) buffer is then added to the well and the reaction is regularly monitored (e.g. every 30 seconds-5 minutes) for absorbance at 330 nm for a given time period (e.g., for between 15-60 minutes). The data can then be used to calculate the IC50 value for each HPPD variant of interest.

[2] = system: HPPD variant APESV V209 (SEQ ID NO: 18); assay: coupled HGO assay; type: biochemical, Apera spica-venti
Procedure: as §1, §2, §3

[3] = system: HPPD variant ALOME V162 (SEQ ID NO: 126); assay: coupled HGO assay; type: biochemical, Alopecurus myosuroides
Procedure: as §1, §2, §3

[4] = system: HPPD variant ALOME V200 (SEQ ID NO: 7); assay: coupled HGO assay; type: biochemical, Alopecurus myosuroides
Procedure: as §1, §2, §3

[5] = system: HPPD variant ALOME V209 (SEQ ID NO: 19); assay: coupled HGO assay; type: biochemical, Alopecurus myosuroides
Procedure: as §1, §2, §3

[6] = system: transgenic tobacco plants expressing mutant HPPD SEQ ID NO: 14; assay: spray test, herbicidal damage scoring; type: in vivo; details: for tolerance compared to SEQ ID 122 expressing plants: SEQ ID 14 plants, 800 g/ha Mesotrione, 400 g/ha Tembotrione or 400 g/ha Isoxaflutole (Table 3.2)
Procedure: (§4) Avena sativa HPPD or orthologues and variants thereof, for example SEQ IDs 1-63 and 122-127, were expressed in transgenic tobacco. DNA sequences that encode these polypeptides (optimized for tobacco or, optionally, codon optimized according to a target crop such as soybean) were prepared synthetically. Each sequence was designed to include a 5′ fusion with TMV omega 5′ leader sequence such that they are flanked at the 5′ end with XhoI and at the 3′ end with KpnI to facilitate direct cloning into a suitable binary vector for Agrobacterium-based plant transformation.
In one example, the TMV omega 5′ leader and a HPPD encoding gene of interest is excised using XhoI/KpnI and cloned into similarly digested binary vector pBIN 19 (Bevan, Nucl. Acids Res. (1984) behind a double enhanced 35S promoter ahead of a NOS 3′ transcription terminator and then transformed into E. coli DH5 alpha competent cells. DNA recovered from the E. coli is used to transform Agrobacterium tumefaciens LBA4404, and transformed bacteria are selected on media contain rifampicin and kanamycin. Tobacco tissue is subjected to Agrobacterium-mediated transformation using methods well described in the art or as described herein. For example, a master plate of Agrobacterium tumefaciens containing the HPPD expressing the binary vector is used to inoculate 10 ml LB (L broth) containing 100 mg/l Rifampicin plus 50 mg/l Kanamycin using a single bacterial colony. This is incubated overnight at 28° C. shaking at 200 rpm. This entire overnight culture is used to inoculate a 50 ml volume of LB containing the same antibiotics. Again this is cultured overnight at 28° C. shaking at 200 rpm. The Agrobacterium cells are pelleted by centrifuging at 3000 rpm for 15 minutes and then resuspended in MS (Murashige and Skoog) medium containing 30 g/l sucrose, pH 5.9 to an OD […]=0.6. This suspension is dispensed in 25 ml aliquots into petri dishes.
Once rooted, plantlets are transferred from agar and potted into 50% peat, 50% John Innes Soil No. 3 or, for example, MetroMix® 380 soil (Sun Gro Horticulture, Bellevue, WA) with slow-release fertilizer in 3 inch round or 4 inch square pots and left regularly watered to establish for 8-12d in the glass house. Glass house conditions are about 24-27° C. day; 18-21° C. night and approximately a 14h (or longer in UK summer) photoperiod. Humidity is adjusted to ˜65% and light levels used are up to 2000 umol/m^2 at bench level. Once new tissue emerged and plants reach the 2-4 leaf stage, some of the clones from each event are sprayed with an HPPD inhibitor of interest selected from the herbicides listed in reference to Example 1. […] For example Callisto® is mixed in water with 0.2-0.25% X-77 surfactant and sprayed from a boom on a suitable track sprayer moving at 2 mph in a DeVries spray chamber (Hollandale, MN) with the nozzle about 2 inches from the plant tops.
Plants are assessed for damage and scored at, for example, 7 and 14 days after treatment (DAT). About 20-30 TO events are produced for a number of HPPD variant genes.
Plants of events showing the least damage are grown to flowering, then bagged and allowed to self. […] Single copy events amongst the Ti plant lines are identified by their 3:1 segregation ratio (with respect to kanamycin and/or herbicide) and by quantitative RT-PCR. Seed from the thus selected Ti tobacco (var. Samsun) lines are sown in 3 inch diameter pots containing 50% peat and 50% John Innes Soil No. 3. After growth to the 3 leaf stage, plants are sprayed as described above in order to test for herbicide tolerance relative to like-treated non-transgenic tobacco plants, and also in comparison with like-treated Ti plants expressing the base HPPD SEQ IDs 122-125. HPPD expression levels were monitored by Western analysis. […]

wild-type tobacco plants = assay: spray test, herbicidal damage scoring; type: in vivo; details: Table 4.1, 7 days after treatment, 100=complete death, 0=no damage, one value per plant/event
Procedure: (§5) Once rooted, plantlets are transferred from agar and potted into 50% peat, 50% John Innes Soil No. 3 or, for example, MetroMix® 380 soil (Sun Gro Horticulture, Bellevue, WA) with slow-release fertilizer in 3 inch round or 4 inch square pots and left regularly watered to establish for 8-12d in the glass house. Glass house conditions are about 24-27° C. day; 18-21° C. night and approximately a 14h (or longer in UK summer) photoperiod.
(§6) About 20-30 TO events are produced for a number of HPPD variant genes.
(§7) Tables 4.1-4.9 show the herbicidal damage scoring on transgenic tobacco plants 7 days after treatment. A score of 100=complete death and 0=no damage observed.

[7] = system: transgenic tobacco plants expressing mutant HPPD SEQ ID NO: 122; assay: spray test, herbicidal damage scoring; type: in vivo; details: Table 4.4; 7 days after treatment; SEQ ID NO: 122; 100=complete death, 0=no damage; one value per event
Procedure: as §4, with “DNA” for “Avena sativa HPPD or orthologues and variants thereof, for example SEQ IDs 1-63 and 122-127, were expressed in transgenic tobacco. DNA”
(§8) For example, a master plate of Agrobacterium tumefaciens containing the HPPD expressing the binary vector is used to inoculate 10 ml LB (L broth) containing 100 mg/l Rifampicin plus 50 mg/l Kanamycin using a single bacterial colony. This is incubated overnight at 28° C. shaking at 200 rpm. This entire overnight culture is used to inoculate a 50 ml volume of LB containing the same antibiotics. Again this is cultured overnight at 28° C. shaking at 200 rpm. The Agrobacterium cells are pelleted by centrifuging at 3000 rpm for 15 minutes and then resuspended in MS (Murashige and Skoog) medium containing 30 g/l sucrose, pH 5.9 to an OD […]=0.6. This suspension is dispensed in 25 ml aliquots into petri dishes.
as §5, §6
(§9) Single copy events amongst the Ti plant lines are identified by their 3:1 segregation ratio (with respect to kanamycin and/or herbicide) and by quantitative RT-PCR. Seed from the thus selected Ti tobacco (var. Samsun) lines are sown in 3 inch diameter pots containing 50% peat and 50% John Innes Soil No. 3. […] HPPD expression levels were monitored by Western analysis.
as §7

[8] = system: transgenic tobacco plants expressing mutant HPPD SEQ ID NO: 124; assay: spray test, herbicidal damage scoring; type: in vivo; details: Table 4.2, 7 days after treatment, 100=complete death, 0=no damage, one value per event
Procedure: as §4, with “DNA” for “Avena sativa HPPD or orthologues and variants thereof, for example SEQ IDs 1-63 and 122-127, were expressed in transgenic tobacco. DNA”
as §8, §5, §6, §9, §7

[9] = system: transgenic tobacco plants expressing mutant HPPD SEQ ID NO: 125; assay: spray test, herbicidal damage scoring; type: in vivo; details: Table 4.3, 7 days after treatment, 100=complete death, 0=no damage, one value per event
Procedure: as §4, with “DNA” for “Avena sativa HPPD or orthologues and variants thereof, for example SEQ IDs 1-63 and 122-127, were expressed in transgenic tobacco. DNA”
as §8, §5, §6, §9, §7

[10] = system: transgenic tobacco plants expressing mutant HPPD SEQ ID NO: 122; assay: spray test, herbicidal damage scoring; type: in vivo; details: Table 3.2; 14 days after treatment; best events, SEQ ID 122; 100=complete death, 0=no damage; one value per event

## CS(=O)(=O)c1ccc(C(=O)C2C(=O)CCCC2=O)c([N+](=O)[O-])c1 [Mesotrione, mesotrione]
[1]
  IC50: 32.2 µM
[2]
  IC50: 44.8 µM
[3]
  IC50: 12.8 µM
[4]
  IC50: 31.9 µM
[5]
  IC50: 31.9 µM
[6]
  tolerance compared to SEQ ID 122 expressing plants: equally tolerant

## CS(=O)(=O)c1cc(C(F)(F)F)ccc1C(=O)c1cnoc1C1CC1 [Isoxaflutole, isoxaflutole]
wild-type tobacco plants
  herbicidal damage scoring, Isoxaflutole (400 gai/ha): 95 and 97 and 96
[6]
  tolerance compared to SEQ ID 122 expressing plants: equally tolerant

## Cc1c(C(=O)c2cnn(C)c2O)ccc(S(C)(=O)=O)c1C1=NOCC1 [Topramezone, topramezone]
wild-type tobacco plants
  herbicidal damage scoring, Topramezone (100 g/ha): 98 and 97 and 99 and 95
[7]
  herbicidal damage scoring, Topramezone (100 g/ha): 0
[8]
  herbicidal damage scoring, Topramezone (100 g/ha): 0
[9]
  herbicidal damage scoring, Topramezone (100 g/ha): 0

## CS(=O)(=O)c1ccc(C(=O)C2C(=O)CCCC2=O)c(Cl)c1COCC(F)(F)F [Tembotrione, tembotrione]
wild-type tobacco plants
  herbicidal damage scoring, Tembotrione (400 gai/ha): 97 and 95 and 98
[6]
  tolerance compared to SEQ ID 122 expressing plants: increased tolerance
[6]; Table 3.2, 14 days after treatment, best events, SEQ ID 14, 100=complete death, 0=no damage, one value per event
  herbicidal damage scoring, Tembotrione (400 gai/ha): 25 and 30
[10]
  herbicidal damage scoring, Tembotrione (400 gai/ha): 45 and 50 and 55 and 65 and 40
